Patent US12377104B1, “Methods for treating a fatty liver disease” (Madrigal Pharmaceuticals, Inc., priority 2024, dated 2025)
Like-named read-outs stand apart in the source and are kept apart here.

Test: Resmetirom exposure parameters by dose, quartile and body weight
Assay type: in vivo, human
Details: for AUC / Cmax: human, in vivo, oral
Experimental: Various body weight cutoffs for dosing were evaluated.

CC(C)c1cc(Oc2c(Cl)cc(-n3nc(C#N)c(=O)[nH]c3=O)cc2Cl)n[nH]c1=O [Resmetirom, 2-(3,5-dichloro-4-((5-isopropyl-6-oxo-1,6-dihydropyridazin-3-yl)oxy)phenyl)-3,5-dioxo-2,3,4,5-tetrahydro-1,2,4-triazine-6-carbonitrile]
Cmin,ss Geometric Mean (80 mg, 80-<90 kg): 0.0207 µg/mL
Cmin,ss Mean (80 mg, 80-<90 kg): 0.0559 µg/mL
Cmin,ss Median (80 mg, 80-<90 kg): 0.0184 µg/mL
t1/2α Geometric Mean (80 mg, 80-<90 kg): 1.21 h
t1/2α Mean (80 mg, 80-<90 kg): 1.34 h
t1/2α Median (80 mg, 80-<90 kg): 1.24 h
t1/2β Geometric Mean (80 mg, 80-<90 kg): 5.15 h
t1/2β Mean (80 mg, 80-<90 kg): 6.04 h
t1/2β Median (80 mg, 80-<90 kg): 4.41 h
Cmin,ss Geometric Mean (80 mg, 90-<100 kg): 0.0142 µg/mL
Cmin,ss Mean (80 mg, 90-<100 kg): 0.052 µg/mL
Cmin,ss Median (80 mg, 90-<100 kg): 0.012 µg/mL
t1/2α Geometric Mean (80 mg, 90-<100 kg): 1.10 h
t1/2α Mean (80 mg, 90-<100 kg): 1.21 h
t1/2α Median (80 mg, 90-<100 kg): 1.02 h
t1/2β Geometric Mean (80 mg, 90-<100 kg): 4.81 h
t1/2β Mean (80 mg, 90-<100 kg): 5.50 h
t1/2β Median (80 mg, 90-<100 kg): 4.29 h
Cmin,ss Geometric Mean (80 mg, 100-<110 kg): 0.0132 µg/mL
Cmin,ss Mean (80 mg, 100-<110 kg): 0.0373 µg/mL
Cmin,ss Median (80 mg, 100-<110 kg): 0.0141 µg/mL
t1/2α Geometric Mean (80 mg, 100-<110 kg): 1.12 h
t1/2α Mean (80 mg, 100-<110 kg): 1.26 h
t1/2α Median (80 mg, 100-<110 kg): 1.12 h
t1/2β Geometric Mean (80 mg, 100-<110 kg): 4.99 h
t1/2β Mean (80 mg, 100-<110 kg): 5.86 h
t1/2β Median (80 mg, 100-<110 kg): 4.50 h
Cmin,ss Geometric Mean (80 mg, <80 kg): 0.0267 µg/mL
Cmin,ss Mean (80 mg, <80 kg): 0.0728 µg/mL
Cmin,ss Median (80 mg, <80 kg): 0.0255 µg/mL
t1/2α Geometric Mean (80 mg, <80 kg): 1.13 h
t1/2α Mean (80 mg, <80 kg): 1.27 h
t1/2α Median (80 mg, <80 kg): 1.15 h
t1/2β Geometric Mean (80 mg, <80 kg): 5.03 h
t1/2β Mean (80 mg, <80 kg): 5.44 h
t1/2β Median (80 mg, <80 kg): 4.53 h
Percentage of Cave,ss in quartile (80 mg; Q1: [20-155) ng/mL): 31%
Percentage of Cave,ss in quartile (80 mg; Q2: [155-219) ng/mL): 31%
Percentage of Cave,ss in quartile (80 mg; Q3: [219-321) ng/mL): 22%
Percentage of Cave,ss in quartile (80 mg, Q4: [321-1326] ng/mL): 17%
Cmin,ss Geometric Mean (80 mg, ≥110 kg): 0.0115 µg/mL
Cmin,ss Mean (80 mg, ≥110 kg): 0.026 µg/mL
Cmin,ss Median (80 mg, ≥110 kg): 0.00977 µg/mL
t1/2α Geometric Mean (80 mg, ≥110 kg): 1.16 h
t1/2α Mean (80 mg, ≥110 kg): 1.30 h
t1/2α Median (80 mg, ≥110 kg): 1.11 h
t1/2β Geometric Mean (80 mg, ≥110 kg): 4.94 h
t1/2β Mean (80 mg, ≥110 kg): 5.30 h
t1/2β Median (80 mg, ≥110 kg): 4.45 h
Cmin,ss Geometric Mean (100 mg, 80-<90 kg): 0.032 µg/mL
Cmin,ss Mean (100 mg, 80-<90 kg): 0.1 µg/mL
Cmin,ss Median (100 mg, 80-<90 kg): 0.0222 µg/mL
t1/2α Geometric Mean (100 mg, 80-<90 kg): 1.16 h
t1/2α Mean (100 mg, 80-<90 kg): 1.30 h
t1/2α Median (100 mg, 80-<90 kg): 1.08 h
t1/2β Geometric Mean (100 mg, 80-<90 kg): 5.58 h
t1/2β Mean (100 mg, 80-<90 kg): 7.13 h
t1/2β Median (100 mg, 80-<90 kg): 4.43 h
Cmin,ss Geometric Mean (100 mg, 90-<100 kg): 0.0417 µg/mL
Cmin,ss Mean (100 mg, 90-<100 kg): 0.113 µg/mL
Cmin,ss Median (100 mg, 90-<100 kg): 0.051 µg/mL
t1/2α Geometric Mean (100 mg, 90-<100 kg): 1.39 h
t1/2α Mean (100 mg, 90-<100 kg): 1.54 h
t1/2α Median (100 mg, 90-<100 kg): 1.37 h
t1/2β Geometric Mean (100 mg, 90-<100 kg): 6.21 h
t1/2β Mean (100 mg, 90-<100 kg): 8.49 h
t1/2β Median (100 mg, 90-<100 kg): 5.29 h
Cmin,ss Geometric Mean (100 mg, 100-<110 kg): 0.0265 µg/mL
Cmin,ss Mean (100 mg, 100-<110 kg): 0.0654 µg/mL
Cmin,ss Median (100 mg, 100-<110 kg): 0.0221 µg/mL
t1/2α Geometric Mean (100 mg, 100-<110 kg): 1.14 h
t1/2α Mean (100 mg, 100-<110 kg): 1.30 h
t1/2α Median (100 mg, 100-<110 kg): 1.34 h
t1/2β Geometric Mean (100 mg, 100-<110 kg): 5.55 h
t1/2β Mean (100 mg, 100-<110 kg): 7.08 h
t1/2β Median (100 mg, 100-<110 kg): 4.65 h
Cmin,ss Geometric Mean (100 mg, <80 kg): 0.0314 µg/mL
Cmin,ss Mean (100 mg, <80 kg): 0.119 µg/mL
Cmin,ss Median (100 mg, <80 kg): 0.0297 µg/mL
t1/2α Geometric Mean (100 mg, <80 kg): 1.26 h
t1/2α Mean (100 mg, <80 kg): 1.47 h
t1/2α Median (100 mg, <80 kg): 1.44 h
t1/2β Geometric Mean (100 mg, <80 kg): 5.36 h
t1/2β Mean (100 mg, <80 kg): 6.85 h
t1/2β Median (100 mg, <80 kg): 4.41 h
Percentage of Cave,ss in quartile (100 mg; Q1: [20-155) ng/mL): 19%
Percentage of Cave,ss in quartile (100 mg; Q2: [155-219) ng/mL): 19%
Percentage of Cave,ss in quartile (100 mg; Q3: [219-321) ng/mL): 28%
Percentage of Cave,ss in quartile (100 mg, Q4: [321-1326] ng/mL): 34%
Cmin,ss Geometric Mean (100 mg, ≥110 kg): 0.0162 µg/mL
Cmin,ss Mean (100 mg, ≥110 kg): 0.0434 µg/mL
Cmin,ss Median (100 mg, ≥110 kg): 0.0128 µg/mL
t1/2α Geometric Mean (100 mg, ≥110 kg): 1.24 h
t1/2α Mean (100 mg, ≥110 kg): 1.38 h
t1/2α Median (100 mg, ≥110 kg): 1.30 h
t1/2β Geometric Mean (100 mg, ≥110 kg): 5.32 h
t1/2β Mean (100 mg, ≥110 kg): 6.33 h
t1/2β Median (100 mg, ≥110 kg): 4.50 h
AUC (80 mg, 80-<90 kg, read-out: AUCtau,ss Geometric Mean): 6.01 µg·h/mL
AUC (80 mg, 80-<90 kg, read-out: AUCtau,ss Mean): 6.66 µg·h/mL
AUC (80 mg, 80-<90 kg, read-out: AUCtau,ss Median): 5.75 µg·h/mL
Cmax (80 mg, 80-<90 kg, read-out: Cmax,ss Geometric Mean): 0.816 µg/mL
Cmax (80 mg, 80-<90 kg, read-out: Cmax,ss Mean): 0.869 µg/mL
Cmax (80 mg, 80-<90 kg, read-out: Cmax,ss Median): 0.87 µg/mL
AUC (80 mg, 90-<100 kg, read-out: AUCtau,ss Geometric Mean): 5.06 µg·h/mL
AUC (80 mg, 90-<100 kg, read-out: AUCtau,ss Mean): 5.79 µg·h/mL
AUC (80 mg, 90-<100 kg, read-out: AUCtau,ss Median): 5.03 µg·h/mL
Cmax (80 mg, 90-<100 kg, read-out: Cmax,ss Geometric Mean): 0.745 µg/mL
Cmax (80 mg, 90-<100 kg, read-out: Cmax,ss Mean): 0.789 µg/mL
Cmax (80 mg, 90-<100 kg, read-out: Cmax,ss Median): 0.795 µg/mL
AUC (80 mg, 100-<110 kg, read-out: AUCtau,ss Geometric Mean): 4.37 µg·h/mL
AUC (80 mg, 100-<110 kg, read-out: AUCtau,ss Mean): 4.74 µg·h/mL
AUC (80 mg, 100-<110 kg, read-out: AUCtau,ss Median): 4.4 µg·h/mL
Cmax (80 mg, 100-<110 kg, read-out: Cmax,ss Geometric Mean): 0.624 µg/mL
Cmax (80 mg, 100-<110 kg, read-out: Cmax,ss Mean): 0.654 µg/mL
Cmax (80 mg, 100-<110 kg, read-out: Cmax,ss Median): 0.644 µg/mL
AUC (80 mg, <80 kg, read-out: AUCtau,ss Geometric Mean): 8.08 µg·h/mL
AUC (80 mg, <80 kg, read-out: AUCtau,ss Mean): 9.23 µg·h/mL
AUC (80 mg, <80 kg, read-out: AUCtau,ss Median): 8.18 µg·h/mL
Cmax (80 mg, <80 kg, read-out: Cmax,ss Geometric Mean): 1.12 µg/mL
Cmax (80 mg, <80 kg, read-out: Cmax,ss Mean): 1.21 µg/mL
Cmax (80 mg, <80 kg, read-out: Cmax,ss Median): 1.14 µg/mL
AUC (80 mg, ≥110 kg, read-out: AUCtau,ss Geometric Mean): 3.47 µg·h/mL
AUC (80 mg, ≥110 kg, read-out: AUCtau,ss Mean): 3.75 µg·h/mL
AUC (80 mg, ≥110 kg, read-out: AUCtau,ss Median): 3.55 µg·h/mL
Cmax (80 mg, ≥110 kg, read-out: Cmax,ss Geometric Mean): 0.489 µg/mL
Cmax (80 mg, ≥110 kg, read-out: Cmax,ss Mean): 0.52 µg/mL
Cmax (80 mg, ≥110 kg, read-out: Cmax,ss Median): 0.504 µg/mL
AUC (100 mg, 80-<90 kg, read-out: AUCtau,ss Geometric Mean): 8.55 µg·h/mL
AUC (100 mg, 80-<90 kg, read-out: AUCtau,ss Mean): 9.66 µg·h/mL
AUC (100 mg, 80-<90 kg, read-out: AUCtau,ss Median): 7.55 µg·h/mL
Cmax (100 mg, 80-<90 kg, read-out: Cmax,ss Geometric Mean): 1.16 µg/mL
Cmax (100 mg, 80-<90 kg, read-out: Cmax,ss Mean): 1.22 µg/mL
Cmax (100 mg, 80-<90 kg, read-out: Cmax,ss Median): 1.2 µg/mL
AUC (100 mg, 90-<100 kg, read-out: AUCtau,ss Geometric Mean): 7.99 µg·h/mL
AUC (100 mg, 90-<100 kg, read-out: AUCtau,ss Mean): 9.01 µg·h/mL
AUC (100 mg, 90-<100 kg, read-out: AUCtau,ss Median): 7.6 µg·h/mL
Cmax (100 mg, 90-<100 kg, read-out: Cmax,ss Geometric Mean): 0.954 µg/mL
Cmax (100 mg, 90-<100 kg, read-out: Cmax,ss Mean): 1.01 µg/mL
Cmax (100 mg, 90-<100 kg, read-out: Cmax,ss Median): 1.06 µg/mL
AUC (100 mg, 100-<110 kg, read-out: AUCtau,ss Geometric Mean): 6.69 µg·h/mL
AUC (100 mg, 100-<110 kg, read-out: AUCtau,ss Mean): 7.43 µg·h/mL
AUC (100 mg, 100-<110 kg, read-out: AUCtau,ss Median): 6.25 µg·h/mL
Cmax (100 mg, 100-<110 kg, read-out: Cmax,ss Geometric Mean): 0.905 µg/mL
Cmax (100 mg, 100-<110 kg, read-out: Cmax,ss Mean): 0.958 µg/mL
Cmax (100 mg, 100-<110 kg, read-out: Cmax,ss Median): 0.966 µg/mL
AUC (100 mg, <80 kg, read-out: AUCtau,ss Geometric Mean): 8.68 µg·h/mL
AUC (100 mg, <80 kg, read-out: AUCtau,ss Mean): 10.8 µg·h/mL
AUC (100 mg, <80 kg, read-out: AUCtau,ss Median): 9.61 µg·h/mL
Cmax (100 mg, <80 kg, read-out: Cmax,ss Geometric Mean): 1.12 µg/mL
Cmax (100 mg, <80 kg, read-out: Cmax,ss Mean): 1.31 µg/mL
Cmax (100 mg, <80 kg, read-out: Cmax,ss Median): 1.37 µg/mL
AUC (100 mg, ≥110 kg, read-out: AUCtau,ss Geometric Mean): 4.33 µg·h/mL
AUC (100 mg, ≥110 kg, read-out: AUCtau,ss Mean): 4.94 µg·h/mL
AUC (100 mg, ≥110 kg, read-out: AUCtau,ss Median): 3.9 µg·h/mL
Cmax (100 mg, ≥110 kg, read-out: Cmax,ss Geometric Mean): 0.575 µg/mL
Cmax (100 mg, ≥110 kg, read-out: Cmax,ss Mean): 0.642 µg/mL
Cmax (100 mg, ≥110 kg, read-out: Cmax,ss Median): 0.647 µg/mL
